Reference: article PMC9525273 (Nature Communications, 2022)
Several values for one entry are separate records, joined by “and”; a condition that tells them apart may be missing. Equal entries are not always repeated. Where two headings read alike, the source gives them in different places.

How the values were obtained:
[1] = test system: extracellular T. gondii tachyzoites expressing TgATP4^G419S-HA; test: [Na+]cyt measurement (SBFI), Na+ dysregulation; format: cell-based, Toxoplasma gondii; parameters: Final [Na+]cyt reached: unit not given here; details: TgATP4G419S-HA; for IC50: Toxoplasma gondii
Protocol: (§1) The ratio of the fluorescence intensity recorded at 340 nm and 380 nm (with an emission wavelength of 515 nm) was converted to [Na^+]cyt using a calibration procedure that entailed suspending parasites in solutions of varying [Na^+] containing ionophores. Fluorescence measurements and calibrations were performed at 37 °C, either with individual 1 mL suspensions using a PerkinElmer LS 50B fluorescence spectrometer (for resting [Na^+]cyt measurements for which the data are shown in Supplementary Fig. 7) or in 96-well plates using a Tecan Infinite M1000 PRO plate reader with i-control (version 1.12) software (all other [Na^+]cyt measurements).

[2] = test system: extracellular T. gondii tachyzoites expressing TgATP4^WT; test: [Na+]cyt measurement (SBFI), Na+ dysregulation; format: cell-based, Toxoplasma gondii; parameters: Final [Na+]cyt reached: unit not given here
Protocol: as §1

[3] = 1.5 h, ~90 min exposure, 37 °C, pH 7.1, read-out: IC50 for Na+ dysregulation
[4] = MEAN, source data of Table 1 (nM there), read-out: IC50 for Na+ dysregulation, MEAN
[5] = single experiments, source data of Table 1 (nM there), read-out: IC50 for Na+ dysregulation
[6] = Toxoplasma gondii, 1.5 h, pH 7.1, WT T. gondii (TgATP4WT), ~90 min exposure, 37 °C, pH 7.1, mean ± SEM, read-out: IC50 for Na+ dysregulation
[7] = Toxoplasma gondii, WT T. gondii, MEAN, source data of Table 1 (nM there), read-out: IC50 for Na+ dysregulation, MEAN
[8] = Toxoplasma gondii, WT T. gondii, single experiments, source data of Table 1 (nM there), read-out: IC50 for Na+ dysregulation
[9] = WT T. gondii, single experiments, source data of Table 1 (nM there), read-out: IC50 for Na+ dysregulation

Question: Which results are given for `N#Cc1cc(NC(=O)[C@H]2c3ccccc3C(=O)N(CC(F)(F)F)[C@@H]2c2cccnc2)ccc1F` [(+)-SJ733]?
Answer: Final [Na+]cyt reached ([1]; [(+)-SJ733] 19.5 nM, MEAN): 11.4; Final [Na+]cyt reached ([1]; [(+)-SJ733] 39.1 nM, MEAN): 14.1; Final [Na+]cyt reached ([1]; [(+)-SJ733] 39.1 nM, single experiments): 15.8 and 12.1 and 14.4; Final [Na+]cyt reached ([1]; [(+)-SJ733] 78.1 nM, MEAN): 14.7; Final [Na+]cyt reached ([1]; [(+)-SJ733] 78.1 nM, single experiments): 18.4 and 12.6 and 13.2; Final [Na+]cyt reached ([1]; [(+)-SJ733] 156.3 nM, MEAN): 13.7; Final [Na+]cyt reached ([1]; [(+)-SJ733] 156.3 nM, single experiments): 14.7 and 11.2 and 15.2; Final [Na+]cyt reached ([1]; [(+)-SJ733] 312.5 nM, MEAN): 13.9; Final [Na+]cyt reached ([1]; [(+)-SJ733] 312.5 nM, single experiments): 15.6 and 11.4 and 14.7; Final [Na+]cyt reached ([1]; [(+)-SJ733] 625 nM, MEAN): 13.0; Final [Na+]cyt reached ([1]; [(+)-SJ733] 625 nM, single experiments): 14.4 and 12.2 and 12.5; Final [Na+]cyt reached ([1]; [(+)-SJ733] 2500 nM, MEAN): 13.7; Final [Na+]cyt reached ([1]; [(+)-SJ733] 2500 nM, single experiments): 15.4 and 12.6 and 13.0; Final [Na+]cyt reached ([1]; [(+)-SJ733] 5000 nM, MEAN): 13.4; Final [Na+]cyt reached ([1]; [(+)-SJ733] 5000 nM, single experiments): 14.6 and 12.4 and 13.1; Final [Na+]cyt reached ([1]; [(+)-SJ733] 10000 nM, MEAN): 12.1; Final [Na+]cyt reached ([1]; [(+)-SJ733] 10000 nM, single experiments): 13.0 and 11.9 and 11.5; Final [Na+]cyt reached ([1]; [(+)-SJ733] 20000 nM, MEAN): 12.6; Final [Na+]cyt reached ([1]; [(+)-SJ733] 20000 nM, single experiments): 13.7 and 11.8 and 12.3; Final [Na+]cyt reached ([1]; [(+)-SJ733] 40000 nM, MEAN): 11.6; Final [Na+]cyt reached ([1]; [(+)-SJ733] 40000 nM, single experiments): 12.7 and 10.4 and 11.7; IC50 [1, 3]: > 40000 nM; IC50 [1, 4]: > 40000 nM; IC50 [1, 5]: > 40000 nM; IC50 [2, 6]: 5040 ± 572 nM; IC50 [2, 7]: 5040 nM; IC50 [2, 8]: 4900 nM; Final [Na+]cyt reached ([2]; WT T. gondii, [(+)-SJ733] 19.5 nM, MEAN): 11.8; Final [Na+]cyt reached ([2]; WT T. gondii, [(+)-SJ733] 39.1 nM, MEAN): 11.7; Final [Na+]cyt reached ([2]; WT T. gondii, [(+)-SJ733] 78.1 nM, MEAN): 12.4; Final [Na+]cyt reached ([2]; WT T. gondii, [(+)-SJ733] 156.3 nM, MEAN): 13.8; Final [Na+]cyt reached ([2]; WT T. gondii, [(+)-SJ733] 312.5 nM, MEAN): 15.1; Final [Na+]cyt reached ([2]; WT T. gondii, [(+)-SJ733] 625 nM, MEAN): 18.3; Final [Na+]cyt reached ([2]; WT T. gondii, [(+)-SJ733] 2500 nM, MEAN): 32.1; Final [Na+]cyt reached ([2]; WT T. gondii, [(+)-SJ733] 2500 nM, single experiments): 21.7 and 37.9 and 34.1 and 34.6; Final [Na+]cyt reached ([2]; WT T. gondii, [(+)-SJ733] 5000 nM, MEAN): 48.9; Final [Na+]cyt reached ([2]; WT T. gondii, [(+)-SJ733] 5000 nM, single experiments): 41.9 and 51.4 and 51.0; Final [Na+]cyt reached ([2]; WT T. gondii, [(+)-SJ733] 10000 nM, MEAN): 65.1; Final [Na+]cyt reached ([2]; WT T. gondii, [(+)-SJ733] 10000 nM, single experiments): 65.8 and 64.6 and 71.3 and 58.7; Final [Na+]cyt reached ([2]; WT T. gondii, [(+)-SJ733] 20000 nM, MEAN): 76.4; Final [Na+]cyt reached ([2]; WT T. gondii, [(+)-SJ733] 20000 nM, single experiments): 74.3 and 76.4 and 85.9 and 69.1; Final [Na+]cyt reached ([2]; WT T. gondii, [(+)-SJ733] 40000 nM, MEAN): 81.2; Final [Na+]cyt reached ([2]; WT T. gondii, [(+)-SJ733] 40000 nM, single experiments): 81.0 and 95.3 and 67.2; IC50 [2, 9]: 4780 nM and 6620 nM and 3880 nM

Question: For `C[C@H]1Cc2c([nH]c3cc(Cl)c(F)cc23)[C@@]2(N1)C(=O)Nc1ccc(Cl)cc12` [Cipargamin], which “Final [Na+]cyt reached” value ([1]; [cipargamin] 7.8 nM, MEAN) is on record?
Answer: 14.1

Question: And the “Final [Na+]cyt reached” value ([1]; [cipargamin] 7.8 nM, single experiments)?
Answer: 13.4 and 14.3 and 14.5

Question: What about the “Final [Na+]cyt reached” value ([1]; [cipargamin] 15.6 nM, MEAN) of the same compound?
Answer: 15.4

Question: And the “Final [Na+]cyt reached” value ([1]; [cipargamin] 15.6 nM, single experiments)?
Answer: 14.1 and 15.1 and 17.0

Question: And the “Final [Na+]cyt reached” value ([1]; [cipargamin] 31.3 nM, MEAN)?
Answer: 15.4

Question: And the “Final [Na+]cyt reached” value ([1]; [cipargamin] 31.3 nM, single experiments)?
Answer: 13.9 and 14.5 and 17.9

Question: What about the “Final [Na+]cyt reached” value ([1]; [cipargamin] 62.5 nM, MEAN) of the same compound?
Answer: 14.3

Question: What about the “Final [Na+]cyt reached” value ([1]; [cipargamin] 62.5 nM, single experiments) of the same compound?
Answer: 13.2 and 14.1 and 15.7

Question: And the “Final [Na+]cyt reached” value ([1]; [cipargamin] 250 nM, MEAN)?
Answer: 13.7

Question: And the “Final [Na+]cyt reached” value ([1]; [cipargamin] 250 nM, single experiments)?
Answer: 13.6 and 14.5 and 12.9

Question: And the “Final [Na+]cyt reached” value ([1]; [cipargamin] 500 nM, MEAN)?
Answer: 14.5

Question: What about the “Final [Na+]cyt reached” value ([1]; [cipargamin] 500 nM, single experiments) of the same compound?
Answer: 12.6 and 13.5 and 17.5

Question: What about the “Final [Na+]cyt reached” value ([1]; [cipargamin] 1000 nM, MEAN) of the same compound?
Answer: 16.4

Question: And the “Final [Na+]cyt reached” value ([1]; [cipargamin] 1000 nM, single experiments)?
Answer: 14.3 and 16.7 and 18.1

Question: And the “Final [Na+]cyt reached” value ([1]; [cipargamin] 2000 nM, MEAN)?
Answer: 17.1

Question: What about the “Final [Na+]cyt reached” value ([1]; [cipargamin] 2000 nM, single experiments) of the same compound?
Answer: 13.3 and 17.0 and 20.8

Question: And the “Final [Na+]cyt reached” value ([1]; [cipargamin] 4000 nM, MEAN)?
Answer: 24.3

Question: What about the “Final [Na+]cyt reached” value ([1]; [cipargamin] 4000 nM, single experiments) of the same compound?
Answer: 22.1 and 21.4 and 29.4

Question: And the “Final [Na+]cyt reached” value ([1]; [cipargamin] 8000 nM, MEAN)?
Answer: 34.2

Question: And the “Final [Na+]cyt reached” value ([1]; [cipargamin] 8000 nM, single experiments)?
Answer: 32.0 and 31.0 and 39.5

Question: And the IC50 [1, 3]?
Answer: > 8000 nM

Question: And the IC50 [1, 4]?
Answer: > 8000 nM

Question: And the IC50 [1, 5]?
Answer: > 8000 nM

Question: What about the IC50 [2, 6] of the same compound?
Answer: 110 ± 3 nM

Question: And the IC50 [2, 7]?
Answer: 110 nM

Question: And the IC50 [2, 8]?
Answer: 103 nM

Question: And the “Final [Na+]cyt reached” value ([2]; WT T. gondii, [cipargamin] 0.5 nM, MEAN)?
Answer: 15.8

Question: What about the “Final [Na+]cyt reached” value ([2]; WT T. gondii, [cipargamin] 0.5 nM, single experiments) of the same compound?
Answer: 14.2 and 16.3 and 16.8

Question: And the “Final [Na+]cyt reached” value ([2]; WT T. gondii, [cipargamin] 1.0 nM, MEAN)?
Answer: 16.2

Question: And the “Final [Na+]cyt reached” value ([2]; WT T. gondii, [cipargamin] 1.0 nM, single experiments)?
Answer: 15.5 and 17.0 and 16.2

Question: What about the “Final [Na+]cyt reached” value ([2]; WT T. gondii, [cipargamin] 2.0 nM, MEAN) of the same compound?
Answer: 14.1

Question: And the “Final [Na+]cyt reached” value ([2]; WT T. gondii, [cipargamin] 3.9 nM, MEAN)?
Answer: 20.7

Question: And the “Final [Na+]cyt reached” value ([2]; WT T. gondii, [cipargamin] 3.9 nM, single experiments)?
Answer: 19.6 and 20.6 and 21.8

Question: What about the “Final [Na+]cyt reached” value ([2]; WT T. gondii, [cipargamin] 7.8 nM, MEAN) of the same compound?
Answer: 23.3

Question: And the “Final [Na+]cyt reached” value ([2]; WT T. gondii, [cipargamin] 7.8 nM, single experiments)?
Answer: 25.2 and 22.3 and 22.5

Question: What about the “Final [Na+]cyt reached” value ([2]; WT T. gondii, [cipargamin] 15.6 nM, MEAN) of the same compound?
Answer: 26.7

Question: And the “Final [Na+]cyt reached” value ([2]; WT T. gondii, [cipargamin] 15.6 nM, single experiments)?
Answer: 29.0 and 26.8 and 24.3

Question: What about the “Final [Na+]cyt reached” value ([2]; WT T. gondii, [cipargamin] 31.3 nM, MEAN) of the same compound?
Answer: 34.0

Question: What about the “Final [Na+]cyt reached” value ([2]; WT T. gondii, [cipargamin] 31.3 nM, single experiments) of the same compound?
Answer: 35.7 and 36.9 and 29.4

Question: And the “Final [Na+]cyt reached” value ([2]; WT T. gondii, [cipargamin] 62.5 nM, MEAN)?
Answer: 44.2

Question: And the “Final [Na+]cyt reached” value ([2]; WT T. gondii, [cipargamin] 62.5 nM, single experiments)?
Answer: 43.2 and 51.7 and 37.6

Question: And the “Final [Na+]cyt reached” value ([2]; WT T. gondii, [cipargamin] 250 nM, MEAN)?
Answer: 75.6

Question: What about the “Final [Na+]cyt reached” value ([2]; WT T. gondii, [cipargamin] 250 nM, single experiments) of the same compound?
Answer: 72.9 and 86.9 and 66.9

Question: What about the “Final [Na+]cyt reached” value ([2]; WT T. gondii, [cipargamin] 500 nM, MEAN) of the same compound?
Answer: 86.6

Question: And the “Final [Na+]cyt reached” value ([2]; WT T. gondii, [cipargamin] 500 nM, single experiments)?
Answer: 82.0 and 102.0 and 75.9

Question: What about the “Final [Na+]cyt reached” value ([2]; WT T. gondii, [cipargamin] 1000 nM, MEAN) of the same compound?
Answer: 91.2

Question: What about the “Final [Na+]cyt reached” value ([2]; WT T. gondii, [cipargamin] 1000 nM, single experiments) of the same compound?
Answer: 85.2 and 107.2 and 81.2

Question: And the IC50 [2, 9]?
Answer: 113 nM
